Legend:
Assay type in all cases: physicochemical
[1] = Absorption and fluorescence spectra, extinction coefficient, fluorescence quantum yield
Method: Absorption spectra were recorded on a Hewlett-Packard 8453 diode array UV-Vis spectrophotometer (Agilent Technologies, Inc., Santa Clara, Calif.), and fluorescence measurements were taken on a SPEX® Fluorolog 2 spectrofluorometer (HORIBA Jobin Yvon, Inc., Edison, N.J.). Melting points are not corrected. NMR spectra were obtained on a Varian Mercury 300 MHz (Varian, Inc., Palo Alto, Calif.) or on a Bruker 300 MHz DRX 300 spectrometer (Bruker Biospin Corp., Billerica, Mass.). Mass spectra were obtained on a Hewlett-Packard 1100 high-performance liquid chromatograph equipped with an 1100 mass selective detector (MS-ESI) (Agilent Technologies, Inc.).
With decreasing solvent polarity, the absorption maximum of dyes 1a-b, 2a-d shifted to longer wavelengths, and the intensity of the transition increased (Table 10, FIG. 11).
The SCRF/VSCRF predicted emission energies and the solute dipole moments before and after the vertical emission process are given in Table 16. The dipole moments of AI-BA(4) and AI-SO(4) are further decreased on the S1 surface after geometry relaxation (in MeOH solution), and then increased during the S1→S0 transition. This observation is consistent with the blue shifts of the emission bands of AI-BA(4) and AI-SO(4) with increasing solvent polarity from C6H6 to MeOH. By contrast, the dipole moment of I-SO further decreases after S1 state geometry relaxation, and then decreases during the vertical emission process. This observation also is in agreement with the red shift of the I-SO emission band with increasing solvent polarity from C6H6 to MeOH. Similarly to the absorption case, a negligible red shift (ΔEem=0.017 eV) was predicted for the emission band of I-TBA with increasing solvent polarity. A small red shift from C6H6 to DMF (with ΔEem=0.020 eV, or Δλmax=6 nm) is observed. The nearly equal emission energy observed in C6H6 and MeOH can again result in the explicit interactions between the solute and solvent molecules.

[2] = Photobleaching under constant illumination from a halogen tungsten lamp filtered through glass
Text: The photostability of dyes can be important for applications in living cells. The mechanism of photobleaching for merocyanines of varying structure has been examined See Toutchkine et al., J. Am. Chem. Soc. 125:4132-4145 (2003). The photostability of the presently disclosed dyes was characterized by exposing them to constant illumination from a halogen tungsten lamp filtered through glass. This broad spectrum light source provided essentially equal intensity throughout the spectral range where the dyes absorb and where they would be irradiated in vivo (about 600 nm to about 650 nm).

[3] = Relative rate of reaction with chemically generated singlet oxygen in DMSO; conditions: 2.5 mM, 1O2 from 1,4-dimethylnaphtalene-1,4-endoperoxide
Method: The bleaching rates for the dyes differed by two orders of magnitude. The relative rate constants kr (rel) for product formation during reaction with singlet oxygen were measured by comparing the percent conversions for dyes dissolved in DMSO containing a fixed amount of ^1O2 (2.5 mM solutions; ^1O2 generated by decomposition of 1,4-dimethylnaphtalene-1,4-endoperoxide). The rates were generally higher for dyes with a polar ground state (1a, 2a, 2b, 2d) than for the dyes with their ground state at the “cyanine limit” (3, 4). […] Olefins without allylic hydrogens react with singlet oxygen to form dioxetanes. Dioxetanes are unstable and decompose, to form two carbonyl compounds.

With `CC1(C)c2ccccc2-[n+]2ccc(/C=C/C=C/C3=C(O)c4ccccc4S3(=O)=O)cc21` [AI-SO] the “Absorbance λmax” value ([1]; Butanol (BuOH)) was 650 nm, the “Emission λmax” value ([1]; Butanol (BuOH)) was 675 nm and the “Extinction coefficient ε” value ([1]; Butanol (BuOH)) was 118000. For the same compound, the “Fluorescence quantum yield Φ” value ([1]; Butanol (BuOH)) was 0.92, the “Absorption energy Eabs Exp” value ([1]; C6H6) was 1.826 eV and the “Emission energy Eem Exp” value ([1]; C6H6) was 1.794 eV. For the same compound, the “Absorption energy Eabs Exp” value ([1]; MeOH) was 2.120 eV, the “Emission energy Eem Exp” value ([1]; MeOH) was 1.865 eV and the “Absorbance λmax” value ([1]; Methanol (MeOH)) was 610 nm. The “Emission λmax” value ([1]; Methanol (MeOH)) was 654 nm, the “Extinction coefficient ε” value ([1]; Methanol (MeOH)) was 65000 and the “Fluorescence quantum yield Φ” value ([1]; Methanol (MeOH)) was 0.54. The “Observed absorption (ε)” value ([1]; Table 10, BuOH) was “(118000)”, the “Observed absorption λmax” value ([1]; Table 10, BuOH) was 650 nm and the “Observed absorption (ε)” value ([1]; Table 10, C6H6) was “(240000)”. For the same compound, the “Observed absorption λmax” value ([1]; Table 10, C6H6) was 679 nm, the “Observed absorption (ε)” value ([1]; Table 10, CH2Cl2) was “(278000)” and the “Observed absorption λmax” value ([1]; Table 10, CH2Cl2) was 667 nm. The “Observed absorption (ε)” value ([1]; Table 10, CH3CN) was “(142000)”, the “Observed absorption λmax” value ([1]; Table 10, CH3CN) was 642 nm and the “Observed absorption (ε)” value ([1]; Table 10, DMF) was “(154000)”. For the same compound, the “Observed absorption λmax” value ([1]; Table 10, DMF) was 651 nm, the “Observed absorption (ε)” value ([1]; Table 10, DMSO) was “(118000)” and the “Observed absorption λmax” value ([1]; Table 10, DMSO) was 644 nm. For the same compound, the “Observed absorption (ε)” value ([1]; Table 10, EtOH) was “(83000)”, the “Observed absorption λmax” value ([1]; Table 10, EtOH) was 636 nm and the “Observed absorption (ε)” value ([1]; Table 10, MeOH) was “(65000)”. The “Observed absorption λmax” value ([1]; Table 10, MeOH) was 610 nm, the “Observed absorption (ε)” value ([1]; Table 10, OcOH) was “(150000)” and the “Observed absorption λmax” value ([1]; Table 10, OcOH) was 660 nm. For the same compound, the “Observed absorption (ε)” value ([1]; Table 10, i-PrOH) was “(122000)”, the “Observed absorption λmax” value ([1]; Table 10, i-PrOH) was 648 nm and the “Absorption Exp wavelength” value ([1]; Table 12, C6H6) was 679 nm. The “Absorption Exp wavelength” value ([1]; Table 12, MeOH) was 585 nm, the “Observed emission (Φ)” value ([1]; Table 15, BuOH) was 0.92 and the “Observed emission λmax” value ([1]; Table 15, BuOH) was 675 nm. For the same compound, the “Observed emission (Φ)” value ([1]; Table 15, C6H6) was 0.19, the “Observed emission λmax” value ([1]; Table 15, C6H6) was 691 nm and the “Observed emission (Φ)” value ([1]; Table 15, CH2Cl2) was 0.54. For the same compound, the “Observed emission λmax” value ([1]; Table 15, CH2Cl2) was 681 nm, the “Observed emission (Φ)” value ([1]; Table 15, CH3CN) was 0.75 and the “Observed emission λmax” value ([1]; Table 15, CH3CN) was 667 nm. For the same compound, the “Observed emission λmax” value ([1]; Table 15, DMF) was 673 nm, the “Observed emission λmax” value ([1]; Table 15, DMSO) was 673 nm and the “Observed emission (Φ)” value ([1]; Table 15, EtOH) was 0.82. For the same compound, the “Observed emission λmax” value ([1]; Table 15, EtOH) was 671 nm, the “Observed emission (Φ)” value ([1]; Table 15, MeOH) was 0.54 and the “Observed emission λmax” value ([1]; Table 15, MeOH) was 665 nm. For the same compound, the “Observed emission (Φ)” value ([1]; Table 15, OcOH) was 0.88, the “Observed emission λmax” value ([1]; Table 15, OcOH) was 679 nm and the “Observed emission (Φ)” value ([1]; Table 15, i-PrOH) was 0.96. The “Observed emission λmax” value ([1]; Table 15, i-PrOH) was 673 nm, the “kph * 10^6 (absolute rate of photobleaching)” value ([2]; C6H6) was 128 s^−1 and the “kph(rel) (relative rate of photobleaching)” value ([2]; C6H6, with respect to standard I-SO in C6H6) was 115. For the same compound, the “kph * 10^6 (absolute rate of photobleaching)” value ([2]; MeOH) was 89 s^−1, the “kph(rel) (relative rate of photobleaching)” value ([2]; MeOH, with respect to standard I-TBA in MeOH) was 261 and the “kr(rel) (relative rate constants for product formation during reaction with singlet oxygen produced chemically)” value [3] was 59.2.
